Data published in ChEMBL document CHEMBL1250455, “Further delineation of hydrophobic binding sites in dopamine D(2)/D(3) receptors for N-4 substituents on the piperazine ring of the hybrid template 5/7-{[2-(4-aryl-piperazin-1-yl)-ethyl]-propyl-amino}-5,6,7,8-tetrahydro-naphthalen-2-ol” (Bioorg Med Chem, 2010).
pEC50, pKi: −log10 of the molar value.

Assays:
D(2) dopamine receptor [1] = molecular target: T1, D(2) dopamine receptor (Homo sapiens, UniProt P14416); test: Agonist activity at human dopamine D2 receptor expressed in CHO cells assessed as stimulation of [35S]GTPgammaS binding relative to dopamine; assay type: functional, cell-based
T1 sequence (P14416 whole entry): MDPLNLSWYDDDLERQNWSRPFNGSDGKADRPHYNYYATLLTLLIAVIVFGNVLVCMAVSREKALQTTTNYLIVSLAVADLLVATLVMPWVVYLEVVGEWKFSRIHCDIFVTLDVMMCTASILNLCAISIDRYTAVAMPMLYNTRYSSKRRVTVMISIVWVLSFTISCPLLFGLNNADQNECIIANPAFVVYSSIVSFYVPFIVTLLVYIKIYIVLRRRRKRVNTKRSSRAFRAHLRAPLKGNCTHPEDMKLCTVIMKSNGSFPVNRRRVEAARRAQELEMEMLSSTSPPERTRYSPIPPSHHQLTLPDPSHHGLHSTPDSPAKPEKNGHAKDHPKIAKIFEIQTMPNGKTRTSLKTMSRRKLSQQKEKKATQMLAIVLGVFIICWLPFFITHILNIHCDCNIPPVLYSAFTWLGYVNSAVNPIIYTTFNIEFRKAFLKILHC

Rattus norvegicus = organism: Rattus norvegicus; test: Selectivity ratio for Ki for rat D2 receptor to Ki for rat D3 receptor
Homo sapiens = organism: Homo sapiens; test: Selectivity ratio of EC50 for human dopamine D2 receptor to EC50 for human dopamine D3 receptor
D(3) dopamine receptor [2] = molecular target: D(3) dopamine receptor (Rattus norvegicus, UniProt P19020); test: Displacement of [3H]spiperone from rat D3 receptor expressed in HEK293 cells; assay type: cell-based
D(3) dopamine receptor (Rattus norvegicus, UniProt P19020), sequence (P19020 whole entry): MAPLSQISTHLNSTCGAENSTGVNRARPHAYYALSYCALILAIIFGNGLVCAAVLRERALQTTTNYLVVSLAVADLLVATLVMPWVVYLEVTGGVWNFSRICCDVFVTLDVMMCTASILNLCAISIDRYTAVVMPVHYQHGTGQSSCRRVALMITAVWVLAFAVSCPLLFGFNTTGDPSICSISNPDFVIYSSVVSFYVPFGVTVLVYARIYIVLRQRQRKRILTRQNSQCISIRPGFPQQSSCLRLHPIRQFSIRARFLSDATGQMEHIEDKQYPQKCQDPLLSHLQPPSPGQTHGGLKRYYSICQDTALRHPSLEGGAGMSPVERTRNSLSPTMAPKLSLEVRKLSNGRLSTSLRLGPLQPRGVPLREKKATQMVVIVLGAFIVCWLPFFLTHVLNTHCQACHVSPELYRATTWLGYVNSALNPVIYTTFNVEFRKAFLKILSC

D(2) dopamine receptor [3] = molecular target: D(2) dopamine receptor (Rattus norvegicus, UniProt P61169); test: Displacement of [3H]spiperone from rat D2 receptor expressed in HEK293 cells; assay type: cell-based
D(2) dopamine receptor (Rattus norvegicus, UniProt P61169), sequence (P61169 whole entry): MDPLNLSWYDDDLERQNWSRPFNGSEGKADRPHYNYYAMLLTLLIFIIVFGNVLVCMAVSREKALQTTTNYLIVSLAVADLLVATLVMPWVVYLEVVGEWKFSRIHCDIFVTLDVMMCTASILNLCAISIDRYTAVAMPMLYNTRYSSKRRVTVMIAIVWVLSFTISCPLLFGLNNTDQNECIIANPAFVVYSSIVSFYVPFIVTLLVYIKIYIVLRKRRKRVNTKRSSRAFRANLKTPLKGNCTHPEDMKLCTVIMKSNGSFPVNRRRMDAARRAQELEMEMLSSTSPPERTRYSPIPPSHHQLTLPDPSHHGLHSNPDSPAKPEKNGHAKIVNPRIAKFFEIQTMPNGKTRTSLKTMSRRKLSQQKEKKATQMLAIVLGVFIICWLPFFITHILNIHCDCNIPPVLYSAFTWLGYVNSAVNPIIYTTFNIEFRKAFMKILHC

D(2) dopamine receptor [4] = molecular target: T1, D(2) dopamine receptor; test: Agonist activity at human dopamine D2 receptor expressed in CHO cells assessed as stimulation of [35S]GTPgammaS binding; assay type: functional, cell-based
D(3) dopamine receptor [5] = molecular target: D(3) dopamine receptor (Homo sapiens, UniProt P35462); test: Agonist activity at human dopamine D3 receptor expressed in CHO cells assessed as stimulation of [35S]GTPgammaS binding; assay type: functional, cell-based
D(3) dopamine receptor (Homo sapiens, UniProt P35462), sequence (P35462 whole entry): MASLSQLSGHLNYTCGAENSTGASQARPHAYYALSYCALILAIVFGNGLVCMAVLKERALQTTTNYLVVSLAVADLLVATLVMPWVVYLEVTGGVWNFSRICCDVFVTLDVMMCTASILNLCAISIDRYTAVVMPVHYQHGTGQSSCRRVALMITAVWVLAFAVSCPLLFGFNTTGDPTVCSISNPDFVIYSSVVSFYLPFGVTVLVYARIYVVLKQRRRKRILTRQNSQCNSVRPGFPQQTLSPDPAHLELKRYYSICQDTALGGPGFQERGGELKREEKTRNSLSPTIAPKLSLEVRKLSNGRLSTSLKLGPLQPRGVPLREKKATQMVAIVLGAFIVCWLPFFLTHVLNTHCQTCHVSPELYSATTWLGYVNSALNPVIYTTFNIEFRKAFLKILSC

Row | Structure (SMILES) | Emax (D(2) dopamine receptor [1]) [%] | Ratio Ki (Rattus norvegicus) | Ratio EC50 (Homo sapiens) | pKi (D(3) dopamine receptor [2]) | pKi (D(2) dopamine receptor [3]) | pEC50 (D(2) dopamine receptor [4]) | pEC50 (D(3) dopamine receptor [5])
1 | NCCc1ccc(O)c(O)c1 | 100 | – | – | – | – | – | –
2 | CCCN(CCN1CCN(c2ccc(-c3ccccc3)cc2)CC1)C1CCc2ccc(O)cc2C1 (stereo in doubt; (+)-8a) [listing 1 of 2 here] | 42.1 | 20.8 | 105 | – | – | – | –
3 | CCCN(CCN1CCN(c2ccc(-c3ccncc3)cc2)CC1)C1CCc2ccc(O)cc2C1 (single isomer, unassigned; (-)) | – | 24.6 | – | – | – | – | –
4 | CCCN(CCN1CCN(c2ccncc2)CC1)C1CCc2ccc(O)cc2C1 (configuration not stated) | – | 4.84 | – | 7.85 | 7.17 | – | –
5 | CCCN(CCN1CCN(c2ccc(-c3cccnc3)cc2)CC1)C1CCc2ccc(O)cc2C1 (racemic) | – | 19.6 | – | 8.52 | 7.23 | – | –
6 | CCCN(CCN1CCN(c2ncccn2)CC1)C1CCc2ccc(O)cc2C1 (configuration not stated) | – | 24.1 | – | 8.16 | 6.78 | – | –
7 | CCCN(CCN1CCN(c2ccc(-c3ccccc3)cc2)CC1)C1CCc2ccc(O)cc2C1 (stereo in doubt; 8a) | – | – | – | 8.28 | 7.19 | – | –
8 | CCCN(CCN1CCN(c2ccc(-c3ccncc3)cc2)CC1)C1CCc2ccc(O)cc2C1 (stereo in doubt; 22d) [listing 1 of 2 here] | – | – | – | – | 7.61 | – | –
9 | CCCN(CCN1CCN(c2ccc(-c3ccccc3)cc2)CC1)C1CCc2ccc(O)cc2C1 (stereo in doubt; (+)-8a) [listing 2 of 2 here] | – | – | – | 8.55 | 7.24 | 6.97 | 8.99
10 | CCCN(CCN1CCN(c2ccc(-c3ccncc3)cc2)CC1)C1CCc2ccc(O)cc2C1 (stereo in doubt; 22d) [listing 2 of 2 here] | – | 32 | – | – | – | – | –
11 | CCCN(CCN1CCN(c2ccccn2)CC1)C1CCc2ccc(O)cc2C1 (configuration not stated) | – | 52.6 | – | 8.71 | 6.99 | – | –
12 | CCCN(CCN1CCN(c2ccc(-c3ccncc3)cc2)CC1)C1CCc2c(O)cccc2C1 (single isomer, unassigned; (-)) | – | – | – | 8.82 | – | – | –
13 | CCCN(CCN1CCN(c2ccc(-c3ccccc3)cc2)CC1)C1CCc2c(O)cccc2C1 (single isomer, unassigned; (-)) | 71.8 | 22.7 | 202 | 8.63 | 7.27 | 7.28 | 9.60
14 | CCCN(CCN1CCN(c2nccc3ccccc23)CC1)[C@H]1CCc2nc(N)sc2C1 | – | 121 | – | – | – | – | –
15 | CCCN(CCC)CCc1cccc2c1CC(=O)N2 [ROPINIROLE] | 83.9 | – | – | – | 5.57 | – | –
16 | CCCN(CCN1CCN(c2cccnc2)CC1)C1CCc2ccc(O)cc2C1 (configuration not stated) | – | 7.51 | – | 8.54 | 7.66 | – | –
17 | CCCN(CCN1CCN(c2ccc(I)cc2)CC1)C1CCc2ccc(O)cc2C1 (configuration not stated) | – | 6.06 | – | 8.12 | 7.33 | – | –
